From ChEMBL document CHEMBL3352040, “From human immunodeficiency virus non-nucleoside reverse transcriptase inhibitors to potent and selective antitrypanosomal compounds” (Bioorg Med Chem, 2014) come the findings set out here.

In series [1] the test system is Trypanosoma brucei brucei. As to the kind of experiment: Antitrypanocidal activity against suramin-sensitive Trypanosoma brucei brucei Squib427 assessed as reduction in parasite growth after 72 hrs. The conditions noted are these: Squib427, 72 h. It is filed as functional, organism-based.
Series [2] concerns Trypanosoma brucei rhodesiense. As to the kind of experiment: Antitrypanocidal activity against suramin-sensitive Trypanosoma brucei rhodesiense STIB-900 assessed as reduction in parasite growth after 72 hrs. The conditions noted are these: STIB-900, 72 h. Format: functional, organism-based.
The test system of series [3] is Human immunodeficiency virus 1. As to the kind of experiment: Antiviral activity against HIV1 infected in human TZM-bl cells assessed as viral inhibition pre-incubated for 30 mins prior to infection measured after 48 hrs by. Format: functional, organism-based. The following applies: Human immunodeficiency virus 1, TZM-bl.
A short description of series [4]: Cytotoxicity against human TZM-bl cells assessed as cell viability after 48 hrs by WST1 assay. Format: cell-based.
The subject of a further series is Trypanosoma cruzi. As to the kind of experiment: Trypanocidal activity against nifurtimox-sensitive Trypanosoma cruzi Tulahuen CL2 infected in human MRC5 SV2 cells assessed as parasite growth inhibition after […] by beta-galactosidase assay. It is filed as functional, organism-based.
A further series deals with Leishmania infantum. Nature of the series: Antileishmanial activity against Leishmania infantum MHOM/MA (BE)/67 infected in primary peritoneal mouse macrophages assessed as reduction in parasite burdun. Format: functional, organism-based.
Another series has as its system Plasmodium falciparum. Nature of the series: Antiplasmodial activity against chloroquine-resistant Plasmodium falciparum K1 infected in human O positive erythrocyte assessed as reduction in parasitemia after 72 hrs. Format: functional, organism-based. The following applies: K1, 72 h.
Series [5] can be described thus: Cytotoxicity against human MRC5 SV2 cells assessed as reduction in cell growth after 72 hrs. The conditions noted are these: MRC5, 72 h. It is filed as cell-based.
Series [6] can be described thus: Solubility of the compound in 10 mM PBS buffer solution at pH7.4 at 3.125 to 200 uM after 2 hrs. Format: physicochemical. The conditions noted are these: pH 7.4.
Series [7] in a line: Octanol-phosphate buffer partition coefficient, log D of the compound at pH 7.4 after 2 hrs of shaking after 2 hrs. Format: physicochemical.
Series [8] in a line: Stability of the compound in PBS buffer assessed as recovery at pH 7.4 measured after 24 hrs by UPLC analysis. It is filed as physicochemical. The conditions noted are these: read-out: Drug recovery.
Series [9] can be described thus: Metabolic stability in human liver microsomes assessed as compound remaining after 15 mins by UPLC analysis. Format: ADME. The conditions noted are these: read-out: Stability.
Series [10] can be described thus: Metabolic stability in mouse liver microsomes assessed as compound remaining after 15 mins by UPLC analysis. The following applies: read-out: Stability. Format: ADME.
Series [11] is described as follows: Metabolic stability in human plasma assessed as compound remaining after 1 hr. It is filed as ADME, cell-free. The conditions noted are these: read-out: Stability.
Series [12] is described as follows: Metabolic stability in mouse plasma assessed as compound remaining after 1 hr. It is filed as ADME, cell-free. The following applies: read-out: Stability.
In series [13] the test system is Trypanosoma brucei brucei. As to the kind of experiment: Trypanocidal activity against suramin-sensitive Trypanosoma brucei brucei Squib427 infected in Swiss mouse assessed as mean survival time at 10 mg/kg first dose through orally and next four dosed administered intraperitoneally for 4 days (reference value: 7.2 days). It is filed as functional. The conditions noted are these: route oral.

The test system of series [14] is Trypanosoma brucei brucei. Nature of the series: Trypanocidal activity against suramin-sensitive Trypanosoma brucei brucei Squib427 infected in Swiss mouse assessed as reduction in parasitemia at 10 mg/kg first dose through orally and next four dosed administered intraperitoneally for 4 days. Format: functional. The conditions noted are these: Squib427, 96 h, route oral.

The subject of series [15] is Trypanosoma brucei brucei. Nature of the series: Trypanocidal activity against suramin-sensitive Trypanosoma brucei brucei Squib427 infected in Swiss mouse assessed as survivors on day 14 post infection at 10 mg/kg first dose through orally and next four dosed administered intraperitoneally for 4 days. It is filed as functional, organism-based. On the set-up: dose 10 mg/kg.

Calls of active or inactive are those of the source. No cut-off for these calls is given here.

In the case of `NS(=O)(=O)c1ccc(Oc2ccc(NC(=O)N[C@H]3[C@@H]4COc5c(F)ccc(F)c5[C@@H]43)nc2)cc1`, the IC50 in [1] was 32.1 µM; in series [2] it was 38.5 µM; with Trypanosoma cruzi it was over 64 µM; with Leishmania infantum it was 32.5 µM; in the series on Plasmodium falciparum, 29.5 µM. Also, the EC50 in series [3] amounted to 1 nM. In addition, the CC50 at 48 h in series [4] was over 100 µM.

Take `N#Cc1ccc(NC(=O)N[C@@H]2[C@@H]3COc4c(F)ccc(F)c4[C@@H]32)nc1`: the IC50 was over 64 µM in series [1]; over 64 µM in [2]; over 64 µM in series [5]; over 64 µM in the series with Trypanosoma cruzi; over 64 µM with Leishmania infantum; 64 µM with Plasmodium falciparum. For the same compound, the EC50 in [3] is 1 nM.

Regarding `CO[C@H]1O[C@@H]2O[C@@]3(C)CC[C@H]4[C@H](C)CC[C@@H]([C@H]1C)[C@@]24OO3`, the IC50 with Plasmodium falciparum is over 64 µM.

Take `c1ccc(Nc2ccnc(Nc3ccccc3)n2)cc1`: the half-inhibitory concentration (IC50) amounted to 7.27 µM in series [1]; 2.53 µM in series [2]; 13.2 µM in series [5]; 4.45 µM in the series with Trypanosoma cruzi; 22.2 µM with Leishmania infantum; 21.8 µM in the series on Plasmodium falciparum. Besides, the EC50 in series [3] is over 10000 nM.

Take `O=C(Cn1ccnc1[N+](=O)[O-])NCc1ccccc1` [BENZNIDAZOLE]: in the series on Trypanosoma cruzi, the IC50 was found to be 2.56 µM.

Take `CCN(CC)CCCC(C)Nc1ccnc2cc(Cl)ccc12` (stereo unspecified) [CHLOROQUINE]: the concentration for half-maximal inhibition (IC50) with Plasmodium falciparum was over 64 µM.

On to `Cc1cc(C)c(Nc2ccnc(Nc3ccc(C#N)cc3)n2)c(C)c1` [DAPIVIRINE], for which the IC50 in series [1] is over 16 µM; in series [2], 19.5 µM; in series [5] it was over 64 µM; in the series on Trypanosoma cruzi, 1.25 µM; with Leishmania infantum, over 64 µM; in the series with Plasmodium falciparum, 4.88 µM. Further, the EC50 in [3] is 2 nM. In [4], the half-maximal cytotoxic concentration (CC50) at 48 h is 2.47 µM.

For the compound `CC(C)Nc1cccnc1N1CCN(C(=O)c2cc3cc(NS(C)(=O)=O)ccc3[nH]2)CC1` [DELAVIRDINE], the IC50 in [1] was over 64 µM; in [2], over 64 µM; in series [5] it was over 64 µM; in the series with Trypanosoma cruzi, over 64 µM; with Leishmania infantum, over 64 µM; with Plasmodium falciparum, 64 µM. Moreover, the EC50 in series [3] was 55 nM. Further, the CC50 at 48 h in series [4] was over 50 µM.

As for `O=C1Nc2ccc(Cl)cc2[C@@](C#CC2CC2)(C(F)(F)F)O1` [EFAVIRENZ], the IC50 was 30.2 µM in [1]; 19.6 µM in series [2]; 25.8 µM in series [5]; 8.56 µM in the series with Trypanosoma cruzi; 7.4 µM in the series on Leishmania infantum; 43.8 µM with Plasmodium falciparum. The CC50 at 48 h in series [4] was over 50 µM.

For the compound `Cc1cc(C#N)cc(C)c1Oc1nc(Nc2ccc(C#N)cc2)nc(N)c1Br` [ETRAVIRINE], the IC50 in series [1] is over 64 µM; in series [2] it was over 64 µM; in [5] it was over 64 µM; in the series with Trypanosoma cruzi, over 64 µM; in the series on Leishmania infantum, 41.6 µM; in the series on Plasmodium falciparum it was 64 µM. Further, in series [3], the EC50 came out at 1 nM. Moreover, the CC50 at 48 h in [4] was over 25 µM.

`CCc1nn(CCO)c(CC)c1Oc1cc(C#N)cc(C#N)c1` [LERSIVIRINE]: the IC50 in series [1] was over 64 µM; in series [2], 54.7 µM; in the series with Trypanosoma cruzi it was over 64 µM; with Leishmania infantum, over 64 µM; in the series on Plasmodium falciparum, over 64 µM. Besides, in series [3], the EC50 was found to be 3 nM. Further, the CC50 at 48 h in series [4] was over 100 µM.

For `Nc1nc(N)nc(Nc2ccc([As]3SCC(CO)S3)cc2)n1` (stereo unspecified) [MELARSOPROL], the IC50 in series [1] was 0.03 µM; in series [2], 0.02 µM; in series [5], 7.4 µM. Also, the solubility at 2 h in [6] was 25 µM. The same compound had a logD at 2 h in series [7] of 4.51. Also, the remaining at 24 h in series [8] worked out at 100%. Further, the remaining at […] came out at 84% in [9] and 72% in series [10]. Besides, the remaining at 1 h in series [11] and in series [12] was 100% throughout.

As for `CCCCCCCCCCCCCCCCOP(=O)([O-])OCC[N+](C)(C)C` [MILTEFOSINE], the 50% inhibitory concentration (IC50) with Leishmania infantum was 6.17 µM.

With `Cc1ccnc2c1NC(=O)c1cccnc1N2C1CC1` [NEVIRAPINE], the IC50 in [1] was over 64 µM; in series [2], over 64 µM; in series [5], over 64 µM; with Trypanosoma cruzi it was over 64 µM; in the series with Leishmania infantum, over 64 µM; in the series on Plasmodium falciparum it was 64 µM. In addition, in series [3], the EC50 is 144 nM. Further, the CC50 at 48 h in [4] is over 50 µM.

As to `CC1CS(=O)(=O)CCN1/N=C/c1ccc([N+](=O)[O-])o1` (stereo unspecified) [NIFURTIMOX], in the series with Trypanosoma cruzi, the IC50 was 0.7 µM.

As for `Cc1ccc(C(=O)Nc2ccc(S(=O)(=O)O)c3cc(S(=O)(=O)O)cc(S(=O)(=O)O)c23)cc1NC(=O)c1cccc(NC(=O)Nc2cccc(C(=O)Nc3cc(C(=O)Nc4ccc(S(=O)(=O)O)c5cc(S(=O)(=O)O)cc(S(=O)(=O)O)c45)ccc3C)c2)c1` [SURAMIN], the IC50 in series [1] is 0.02 µM; in series [2] it was 0.02 µM; in series [5], over 64 µM. Also, in [13], the MST was over 21 days. In [14], the inhibition in vivo at 10 mg/kg was found to be 100%. Moreover, in [15], the outcome was Active.

As to `CC(C)=CCOc1cc(NC(=S)c2ccoc2C)ccc1Cl` [UC 781], the IC50 in series [1] was over 64 µM; in series [2], 38.5 µM; in [5], over 64 µM; with Trypanosoma cruzi, over 64 µM; in the series with Leishmania infantum, over 64 µM; in the series with Plasmodium falciparum, 27.4 µM. Besides, the EC50 in [3] was determined as 3 nM. For the same compound, in series [4], the CC50 at 48 h is over 100 µM.
